Tests used:
[1] = test system: IL-6 transcription; assay: LPS-stimulated IL-6 transcription in peritoneal macrophages (qPCR); format: cell-based, mouse; details: 20 μg/mL peptide, 100 ng/mL LPS, 6 h
Procedure: (§1) qPCR was performed using SYBR green master mix (Takara, Japan) on a Realplex Mastercycler real-time PCR system (Eppendorf, Germany) according to the manufacturer’s instruction. The gene transcription levels were normalized to GAPDH or β-actinas as illustrated in figure legends and calculated by ΔΔCt method. The accuracy of qPCR results were checked by melting curve analysis. qPCR primers were listed in Additional file 1: Table S1.
(§2) Cells were incubated with peptides (0, 5, 10, and 20 μg/mL) with or without 100 ng/mL LPS (from E. coli 0111:B4, Sigma-Aldrich, USA) for 6 h. After treatment, culture medium was collected for TNF-α, IL-1β and IL-6 quantification using enzyme-linked immunosorbent assay (ELISA) kits (Dakewei, China). Cells were washed with ice-cold PBS and lysed by Trizol reagent (Life Tech, USA). Total RNA was extracted for cDNA synthesis to quantify TNF-α, IL-1β and IL-6 transcription levels by qPCR as described in qPCR section.

[2] = test system: P-JNK2; assay: Western blot, LPS-induced P-JNK2 in peritoneal macrophages; format: cell-based, mouse; details: 20 μg/mL peptide, 100 ng/mL LPS, 30 min, band density ratio to β-actin
Procedure: (§3) Cells were treated with different concentrations of cecropin-TY1 (0, 5, 10, and 20 μg/mL) in the presence or absence of 100 ng/mL LPS (from E. coli 0111:B4, Sigma-Aldrich, USA). After 30-min incubation, cells were washed twice with ice-cold PBS and lysed with RIPA lysis buffer (Beyotime, China) on ice for 30 min according to our previous method. Protein concentration was quantified by BCA Protein Assay Kit (Thermo, Germany). About 40 μg protein was separated on a 10 % SDS-PAGE gel and transferred to a polyvinylidene difluoride membrane. The membrane was blocked by incubating with 5 % BSA (BD, USA) dissolved in Tris-buffered solution Tween-20 (TBST, 2.42 g/L Trisbase, 8 g/L NaCl, 0.1 % Tween 20, pH 7.6) for 2 h at room temperature. The membrane was then incubated with primary antibodies against ERK, phospho-ERK, p38, phospho-p38, JNK, phospho-JNK, phospho-IκBα, NF-κB p65 and phospho-NF-κB p65 (1:2000, Cell Signaling Technology, USA) and GAPDH/β-actin (1:5000, Santa Cruz Biotechnology, USA) overnight at 4 °C, respectively. After incubation, the immunoblot was washed three times with TBST for 5 min each time, and incubated with secondary antibody (1:5000, Cell Signaling Technology, USA) at room temperature for 1 h. Signals were measured by enhanced chemiluminescence kit in a dark room after washing three times with TBST for 10 min each time (TIANGEN, China).

[3] = test system: IL-6 production; assay: LPS-stimulated IL-6 production in peritoneal macrophages (ELISA); format: cell-based, mouse; details: 20 μg/mL peptide, 100 ng/mL LPS, 6 h
Procedure: as §2

[4] = test system: IL-1β transcription; assay: LPS-stimulated IL-1β transcription in peritoneal macrophages (qPCR); format: cell-based, mouse; details: 20 μg/mL peptide, 100 ng/mL LPS, 6 h
Procedure: as §1, §2

[5] = test system: IL-1β production; assay: LPS-stimulated IL-1β production in peritoneal macrophages (ELISA); format: cell-based, mouse; details: 20 μg/mL peptide, 100 ng/mL LPS, 6 h
Procedure: as §2

[6] = test system: P-IκBα; assay: Western blot, LPS-induced P-IκBα in peritoneal macrophages; format: cell-based, mouse; details: 20 μg/mL peptide, 100 ng/mL LPS, 30 min, band density ratio to β-actin
Procedure: as §3

[7] = test system: mouse peritoneal macrophages; details: CCK-8, 24 h, concentration as high as 200 μg/mL
Procedure: (§4) Mouse peritoneal macrophages were prepared according to previous method. Brewer thioglycollate medium (3 %, w/v, Sigma-Aldrich, USA) was intraperitoneally injected to C57BL/6 mouse. After 3 days, the mouse was euthanized and intraperitoneally injected with 20 mL RPMI-1640 medium to collect peritoneal macrophages. RAW264.7 cells were cultured in RPMI 1640 medium (10 % FBS, 100 U/mL penicillin and 100 μg/mL streptomycin, Gibco, USA) at 37 °C humidified with 5 % CO2. Mouse macrophages, peritoneal macrophages and RAW264.7 cells, were seeded in a 96-well (2 × 10^4 cells/well) plate, and cultured in RPMI 1640 medium (100 μL) supplemented with 2 % FBS, 100 U/mL penicillin and 100 μg/mL streptomycin (Gibco, USA) at 37 °C in a humidified 5 % CO2 incubator. The cytotoxicity of cecropin-TY1 against mouse macrophages was determined by Cell Counting Kit-8 assay (CCK-8) following the kit instruction. In brief, serial 2-fold peptide dilutions were added to each well, and control wells received the same volume of phosphate-buffered solution (PBS, 8 g/L NaCl, 0.2 g/L KCl, 0.2 g/L KH2PO4, 2.89 g/L Na2HPO4 · 12H2O, pH 7.4). After 24-h incubation, CCK-8 solution (10 μL/well) was added and incubated for an additional 4 h. The absorbance at 450 nm was monitored on a microplate reader (Epoch Etock, BioTek, USA).

[8] = test system: RAW264.7 cells; details: CCK-8, 24 h, concentration as high as 200 μg/mL
Procedure: as §4

“GWLKKIGKKIERVGQNVRNAAISTLPIAQGAAGVAGALN-NH2 [cecropin-TY1]” was tested. Which “attenuation of LPS-stimulated IL-6 transcription” value [1] did it give?
The value was 94.1%.

And the “inhibition of LPS-induced P-JNK2 expression” value [2]?
Its value is 66.1%.

And the “reduction of LPS-induced IL-6 production” value [3]?
The value was 76.2%.

What about the “attenuation of LPS-stimulated IL-1β transcription” value [4] of the same substance?
The value was 67.5%.

What about the “reduction of LPS-induced IL-1β production” value [5] of the same substance?
Its value is 63.4%.

And the “inhibition of LPS-induced P-IκBα expression” value [6]?
The value was 74.8%.

And the “cytotoxicity (cell viability)” value [7]?
The value was “didn’t show any cytotoxicity”.

What about the “cytotoxicity (cell viability)” value [8] of the same substance?
The value was “didn’t show any cytotoxicity”.

Source: paper PMC4619319, “A potent anti-inflammatory peptide from the salivary glands of horsefly” (Parasites & Vectors, 2015)
